According to patent US4081441A, “Antibacterial agents” (priority 1977, dated 1978):
≈ marks a conversion by molar mass, not a printed value. Like-named read-outs stand apart in the source and are kept apart here.

Experiments:
Cl. perfringens = test: microbe, parasite or virus in culture; type: cell-based; conditions: Clostridium perfringens
Cl. acidiurici = test: M.I.C. against anaerobic bacteria, Cl. acidiurici; type: cell-based; conditions: strain A9560
Pseudomonas aeruginosa [1] = test: Minimum Inhibitory Concentration, agar dilution, overnight incubation at 37° C.; type: cell-based; conditions: for MIC: Pseudomonas aeruginosa
Text: A carbenicillin sample was also run for comparative purposes.

Pseudomonas aeruginosa [2] = conditions: prior art; cited from earlier work
Pseudomonas aeruginosa [3] = test: animal or person; conditions: in Mus musculus, im
Cl. difficile = test: M.I.C. against anaerobic bacteria, Cl. difficile; type: cell-based; conditions: Clostridioides difficile
[4] = Mouse blood (plasma) antibiotic levels after single intramuscular dose; type: in vivo; conditions: im, 40 mg/kg, mice, 40 mg./kg. i.m., Test 1 (Ave. of 6 mice tested), read-out: Blood Level
Procedure: Plasma antibiotic levels from mice administered a single intramuscular dose of 40 mg./kg. of BL-[…] or carbenicillin are shown in the following table.

Pseudomonas aeruginosa [5] = test: Minimum Bactericidal Concentration, inoculum 10^4 cells/ml., at least 99% kill; type: cell-based
Procedure: The bactericidal in vitro activity of sodium D(-)-6-(α-(1,2,4-triazine-3,5-dione-6-carboxamido)-4-hydroxyphenylacetamido)penicillanate (BL-P1908) against several strains of Pseudomonas aeruginosa was determined under two sets of conditions. In one test the Minimum Bactericidal Concentrations (M.B.C.) were determined using an inoculum size of 10^4 cells/ml. and the M.B.C. was defined as the lowest concentration of antibiotic in mcg./ml. needed to kill at least 99% of the viable Pseudomonas cells.

Cl. ramosum = test: M.I.C. against anaerobic bacteria, Cl. ramosum; type: cell-based; conditions: Thomasclavelia ramosa
Bacteroides fragilis = test: M.I.C. against anaerobic bacteria, Bacteroides fragilis; type: cell-based
Cl. cylindrosporum = test: M.I.C. against anaerobic bacteria, Cl. cylindrosporum; type: cell-based; conditions: strain A9562
Cl. septicum = test: M.I.C. against anaerobic bacteria, Cl. septicum; type: cell-based; conditions: Clostridium septicum; strain A21869
Pseudomonas aeruginosa [6] = test: Minimum Bactericidal Concentration, inoculum 10^5 cells/ml., at least 99.9% kill; type: cell-based
Text: The effect of increased inoculum size on the bactericidal activity of BL-P1908 was investigated by a second test in which an inoculum size of 10^5 cells/ml. was used and the M.B.C. was defined as the lowest concentration of antibiotics in mcg./ml. needed to kill at least 99.9% of viable Pseudomonas cells.

Q: Which MIC (Cl. perfringens; strain A21873) does the source give for `CC1(C)S[C@@H]2[C@H](NC(=O)C(C(=O)O)c3ccccc3)C(=O)N2[C@H]1C(=O)O` (some centres unmarked) [Carbenicillin, reference compound] here?
A: 0.5 µg/mL (≈ 1.32 µM)

Q: What about the MIC (Cl. perfringens; strain A21874) of the same compound?
A: 0.5 µg/mL (≈ 1.32 µM)

Q: And the MIC (Cl. perfringens; strain A21907)?
A: 4 µg/mL (≈ 10.6 µM)

Q: What about the MIC (Cl. acidiurici) of the same compound?
A: 0.5 µg/mL (≈ 1.32 µM)

Q: What about the M.I.C. (Pseudomonas aeruginosa [1]) of the same compound?
A: 32 µg/mL

Q: And the MIC (Pseudomonas aeruginosa [1]; strain A9502)?
A: 63 µg/mL (≈ 166 µM)

Q: And the MIC (Pseudomonas aeruginosa [1]; strain A9827)?
A: 32 µg/mL (≈ 84.6 µM)

Q: What about the MIC (Pseudomonas aeruginosa [1]; strain A9910) of the same compound?
A: 32 µg/mL (≈ 84.6 µM)

Q: And the MIC (Pseudomonas aeruginosa [1]; strain A9923)?
A: 63 µg/mL (≈ 166 µM)

Q: What about the MIC (Pseudomonas aeruginosa [1]; strain A9924) of the same compound?
A: 63 µg/mL (≈ 166 µM)

Q: What about the MIC (Pseudomonas aeruginosa [1]; strain A9925) of the same compound?
A: 32 µg/mL (≈ 84.6 µM)

Q: What about the MIC (Pseudomonas aeruginosa [1]; strain A9926) of the same compound?
A: 63 µg/mL (≈ 166 µM)

Q: What about the MIC (Pseudomonas aeruginosa [1]; strain A9930) of the same compound?
A: 63 µg/mL (≈ 166 µM)

Q: What about the MIC (Pseudomonas aeruginosa [1]; strain A9931) of the same compound?
A: 63 µg/mL (≈ 166 µM)

Q: And the MIC (Pseudomonas aeruginosa [1]; strain A15150)?
A: 32 µg/mL (≈ 84.6 µM)

Q: And the MIC (Pseudomonas aeruginosa [1]; strain A15151)?
A: 32 µg/mL (≈ 84.6 µM)

Q: And the MIC (Pseudomonas aeruginosa [1]; strain A15194)?
A: > 125 µg/mL

Q: And the MIC (Pseudomonas aeruginosa [1]; strain A15195)?
A: 63 µg/mL (≈ 166 µM)

Q: What about the MIC (Pseudomonas aeruginosa [1]; strain A15196) of the same compound?
A: 63 µg/mL (≈ 166 µM)

Q: And the MIC (Pseudomonas aeruginosa [1]; strain A20125)?
A: 63 µg/mL (≈ 166 µM)

Q: And the MIC (Pseudomonas aeruginosa [1]; strain A20126)?
A: 16 µg/mL (≈ 42.3 µM)

Q: What about the MIC (Pseudomonas aeruginosa [1]; strain A20127) of the same compound?
A: 63 µg/mL (≈ 166 µM)

Q: What about the MIC (Pseudomonas aeruginosa [1]; strain A20128) of the same compound?
A: 63 µg/mL (≈ 166 µM)

Q: What about the MIC (Pseudomonas aeruginosa [1]; strain A20129) of the same compound?
A: 63 µg/mL (≈ 166 µM)

Q: And the MIC (Pseudomonas aeruginosa [1]; strain A20130)?
A: 63 µg/mL (≈ 166 µM)

Q: What about the MIC (Pseudomonas aeruginosa [1]; strain A20228) of the same compound?
A: 63 µg/mL (≈ 166 µM)

Q: And the MIC (Pseudomonas aeruginosa [1]; strain A20546)?
A: 63 µg/mL (≈ 166 µM)

Q: And the MIC (Pseudomonas aeruginosa [1]; strain A20557)?
A: > 125 µg/mL

Q: And the MIC (Pseudomonas aeruginosa [1]; strain A20574)?
A: 32 µg/mL (≈ 84.6 µM)

Q: What about the MIC (Pseudomonas aeruginosa [1]; strain A20602) of the same compound?
A: 63 µg/mL (≈ 166 µM)

Q: And the MIC (Pseudomonas aeruginosa [1]; strain A20616)?
A: 63 µg/mL (≈ 166 µM)

Q: And the MIC (Pseudomonas aeruginosa [1]; strain A20641)?
A: 63 µg/mL (≈ 166 µM)

Q: And the MIC (Pseudomonas aeruginosa [1]; strain A20717)?
A: > 125 µg/mL

Q: What about the MIC (Pseudomonas aeruginosa [1]; strain A20726) of the same compound?
A: 63 µg/mL (≈ 166 µM)

Q: And the MIC (Pseudomonas aeruginosa [1]; strain A21336)?
A: 63 µg/mL (≈ 166 µM)

Q: What about the “potency against Pseudomonas aeruginosa” value (Pseudomonas aeruginosa [2]) of the same compound?
A: relatively low potency

Q: What about the ED50 (Pseudomonas aeruginosa [3]; read-out: PD50 /treatment, P. aeruginosa A9843A, challenge 1 × 10^4, i.m., typical figures based on several tests) of the same compound?
A: 100 mg/kg

Q: What about the ED50 (Pseudomonas aeruginosa [3]; read-out: PD50 /treatment, P. aeruginosa A9843A, challenge 2 × 10^4, i.m., typical figures based on several tests) of the same compound?
A: 100 mg/kg

Q: And the ED50 (Pseudomonas aeruginosa [3]; read-out: PD50 /treatment, P. aeruginosa A9843A, challenge 3 × 10^4, i.m., at 0 and 2 hours)?
A: 130 mg/kg

Q: And the ED50 (Pseudomonas aeruginosa [3]; read-out: PD50 /treatment, P. aeruginosa A20599, challenge 3 × 10^4, i.m., at 0 and 2 hours)?
A: 100 mg/kg

Q: And the ED50 (Pseudomonas aeruginosa [3]; read-out: PD50 /treatment, P. aeruginosa A20599, challenge 6 × 10^4, i.m., at 0 and 2 hours)?
A: 130 mg/kg

Q: And the MIC (Cl. difficile; strain A21675)?
A: 32 µg/mL (≈ 84.6 µM)

Q: What about the MIC (Cl. difficile; strain A21972) of the same compound?
A: 32 µg/mL (≈ 84.6 µM)

Q: And the concentration at 0.25 h ([4]; 15 min.)?
A: 19100 ng/mL

Q: What about the concentration at 0.5 h ([4]; 30 min.) of the same compound?
A: 12500 ng/mL

Q: And the concentration at 1 h ([4]; 60 min.)?
A: 4000 ng/mL

Q: What about the concentration at 1.5 h ([4]; 90 min.) of the same compound?
A: < 1400 ng/mL

Q: And the MBC (Pseudomonas aeruginosa [5]; strain 9843A)?
A: 63 µg/mL (≈ 166 µM)

Q: And the MBC (Pseudomonas aeruginosa [5]; strain 9910)?
A: 32 µg/mL (≈ 84.6 µM)

Q: And the MBC (Pseudomonas aeruginosa [5]; strain 9926)?
A: 63 µg/mL (≈ 166 µM)

Q: And the MBC (Pseudomonas aeruginosa [5]; strain 20126)?
A: 63 µg/mL (≈ 166 µM)

Q: What about the MBC (Pseudomonas aeruginosa [5]; strain 20128) of the same compound?
A: 63 µg/mL (≈ 166 µM)

Q: And the MBC (Pseudomonas aeruginosa [5]; strain 20227)?
A: 63 µg/mL (≈ 166 µM)

Q: What about the MBC (Pseudomonas aeruginosa [5]; strain 20228) of the same compound?
A: 63 µg/mL (≈ 166 µM)

Q: And the MBC (Pseudomonas aeruginosa [5]; strain 20546)?
A: 63 µg/mL (≈ 166 µM)

Q: And the MBC (Pseudomonas aeruginosa [5]; strain 20557)?
A: 250 µg/mL (≈ 661 µM)

Q: What about the MBC (Pseudomonas aeruginosa [5]; strain 20574) of the same compound?
A: 63 µg/mL (≈ 166 µM)

Q: What about the MBC (Pseudomonas aeruginosa [5]; strain 20616) of the same compound?
A: 125 µg/mL (≈ 330 µM)

Q: What about the MBC (Pseudomonas aeruginosa [5]; strain 20641) of the same compound?
A: 125 µg/mL (≈ 330 µM)

Q: And the MBC (Pseudomonas aeruginosa [5]; strain 20717)?
A: 250 µg/mL (≈ 661 µM)

Q: What about the MBC (Pseudomonas aeruginosa [5]; strain 20726) of the same compound?
A: 125 µg/mL (≈ 330 µM)

Q: And the MBC (Pseudomonas aeruginosa [5]; strain 21336)?
A: 63 µg/mL (≈ 166 µM)

Q: What about the MIC (Cl. ramosum; strain A21883) of the same compound?
A: 32 µg/mL (≈ 84.6 µM)

Q: What about the MIC (Cl. ramosum; strain A21970) of the same compound?
A: 32 µg/mL (≈ 84.6 µM)

Q: What about the MIC (Bacteroides fragilis; strain A20920) of the same compound?
A: 2 µg/mL (≈ 5.29 µM)

Q: And the MIC (Bacteroides fragilis; strain A20926)?
A: 16 µg/mL (≈ 42.3 µM)

Q: What about the MIC (Bacteroides fragilis; strain A20927-1) of the same compound?
A: 2 µg/mL (≈ 5.29 µM)

Q: And the MIC (Bacteroides fragilis; strain A20930)?
A: 63 µg/mL (≈ 166 µM)

Q: And the MIC (Bacteroides fragilis; strain A20933)?
A: 32 µg/mL (≈ 84.6 µM)

Q: What about the MIC (Bacteroides fragilis; strain A20934) of the same compound?
A: 32 µg/mL (≈ 84.6 µM)

Q: What about the MIC (Bacteroides fragilis; strain A20935) of the same compound?
A: 32 µg/mL (≈ 84.6 µM)

Q: And the MIC (Bacteroides fragilis; strain A21870)?
A: 4 µg/mL (≈ 10.6 µM)

Q: And the MIC (Bacteroides fragilis; strain A21871)?
A: 32 µg/mL (≈ 84.6 µM)

Q: And the MIC (Bacteroides fragilis; strain A21872)?
A: 63 µg/mL (≈ 166 µM)

Q: What about the MIC (Bacteroides fragilis; strain A21875) of the same compound?
A: 16 µg/mL (≈ 42.3 µM)

Q: And the MIC (Bacteroides fragilis; strain A22053)?
A: 63 µg/mL (≈ 166 µM)

Q: What about the MIC (Bacteroides fragilis; strain A27020) of the same compound?
A: > 125 µg/mL

Q: What about the MIC (Cl. cylindrosporum) of the same compound?
A: 0.5 µg/mL (≈ 1.32 µM)

Q: And the MIC (Cl. septicum)?
A: 1 µg/mL (≈ 2.64 µM)

Q: And the MBC (Pseudomonas aeruginosa [6]; strain 9843A)?
A: 125 µg/mL (≈ 330 µM)

Q: And the MBC (Pseudomonas aeruginosa [6]; strain 9910)?
A: 125 µg/mL (≈ 330 µM)

Q: And the MBC (Pseudomonas aeruginosa [6]; strain 9926)?
A: 125 µg/mL (≈ 330 µM)

Q: What about the MBC (Pseudomonas aeruginosa [6]; strain 20126) of the same compound?
A: 63 µg/mL (≈ 166 µM)

Q: What about the MBC (Pseudomonas aeruginosa [6]; strain 20128) of the same compound?
A: 125 µg/mL (≈ 330 µM)

Q: What about the MBC (Pseudomonas aeruginosa [6]; strain 20227) of the same compound?
A: 125 µg/mL (≈ 330 µM)

Q: And the MBC (Pseudomonas aeruginosa [6]; strain 20228)?
A: 63 µg/mL (≈ 166 µM)

Q: And the MBC (Pseudomonas aeruginosa [6]; strain 20546)?
A: 250 µg/mL (≈ 661 µM)

Q: What about the MBC (Pseudomonas aeruginosa [6]; strain 20557) of the same compound?
A: 250 µg/mL (≈ 661 µM)

Q: What about the MBC (Pseudomonas aeruginosa [6]; strain 20574) of the same compound?
A: 125 µg/mL (≈ 330 µM)

Q: What about the MBC (Pseudomonas aeruginosa [6]; strain 20602) of the same compound?
A: 250 µg/mL (≈ 661 µM)

Q: What about the MBC (Pseudomonas aeruginosa [6]; strain 20616) of the same compound?
A: 250 µg/mL (≈ 661 µM)

Q: What about the MBC (Pseudomonas aeruginosa [6]; strain 20641) of the same compound?
A: 125 µg/mL (≈ 330 µM)

Q: And the MBC (Pseudomonas aeruginosa [6]; strain 20717)?
A: 1000 µg/mL (≈ 2640 µM)

Q: What about the MBC (Pseudomonas aeruginosa [6]; strain 20726) of the same compound?
A: 250 µg/mL (≈ 661 µM)

Q: And the MBC (Pseudomonas aeruginosa [6]; strain 21336)?
A: 125 µg/mL (≈ 330 µM)
